Test results from PMC10799085, “A miniaturized mode-of-action profiling platform enables high throughput characterization of the molecular and cellular dynamics of EZH2 inhibition” (Scientific Reports, 2024).
Like-named read-outs stand apart in the source and are kept apart here.

How the values were obtained:
PRC2/EZH2Y111D = target: T1, PRC2/EZH2Y111D (Homo sapiens, UniProt Q15910, Y111D); experiment: Scintillation proximity assay (SPA) of H3K27 methylation; format: biochemical
T1 construct: N-terminal 6His-tagged full length EZH2^Y641N, EZH2^Y111L, EZH2^Y111D; 6His (N); made in house; host or cells: Sf9 insect cells (baculovirus co-infection)
Description: (§1) Assay-ready plates containing 50 nl of compound dilutions and DMSO controls were filled with 2.5 µL enzyme solution and pre-incubated for 15 min. […] Experiments were also performed without pre-incubation of enzyme and compounds. In this case, the substrate solution was added before enzyme. The reaction was stopped using 1.6 µg/µl streptavidin beads (Perkin Elmer) and 700 µM of SAM (Perkin Elmer). The plates were sealed with transparent foil.
(§2) For equilibrium binding competition (ePCA) and SPA enzyme inhibition assays, raw data import, quality control, normalization, and curve fitting to a 4-parameter logistic equation for IC50 determination were performed using the Genedata Screener® software (Genedata AG). ePCA Ki values were either calculated using the Cheng-Prussof equation[68] or with the GraphPad Prism model “One-site—Fit Ki”.

PRC2/EZH2+/+ [1] = target: T2, PRC2/EZH2+/+ (Homo sapiens, UniProt Q15910); experiment: as above; format: biochemical
T2 construct: purchased Active Motif
Description: as §1, §2

PRC2/EZH2Y641N+Y661D = target: T3, PRC2/EZH2Y641N+Y661D (Homo sapiens, UniProt Q15910, Y641N/Y661D); experiment: as above; format: biochemical
T3 construct: N-terminal 6His-tagged full length EZH2^Y641N, EZH2^Y111L, EZH2^Y111D, EZH2^Y641N, Y661DEZH2, EZH1; 6His (N); made in house; host or cells: Sf9 insect cells (baculovirus co-infection)
Description: as §1, §2

PRC2/EZH2Y641N [2] = target: T4, PRC2/EZH2Y641N (Homo sapiens, UniProt Q15910, Y641N); experiment: as above; format: biochemical
T4 construct: Synthetic cDNA encoding N-terminal 6His-tagged full length EZH2^Y641N; 6His (N); made in house; host or cells: Sf9 insect cells (baculovirus co-infection)
Description: as §1, §2

PRC2/EZH2 Y111L = target: T5, PRC2/EZH2 Y111L (Homo sapiens, UniProt Q15910, Y111L); experiment: as above; format: biochemical
T5 construct: N-terminal 6His-tagged full length EZH2^Y641N, EZH2^Y111L; 6His (N); made in house; host or cells: Sf9 insect cells (baculovirus co-infection)
Description: as §1, §2

PRC2/EZH2Y641N [3] = target: T4, PRC2/EZH2Y641N; experiment: Equilibrium probe competition assay (ePCA), TR-FRET; format: binding
in vitro = in vitro ADME; settings: human, Caco-2, pH 7.2, 2 µM, 2 h, 37 °C
Description: Cells were kept at 37 °C in a humidified 5% CO2 atmosphere. Before the permeation assay was run, the culture medium was replaced by an FCS-free HEPES carbonate transport buffer (pH 7.2). For assessment of monolayer integrity, the transepithelial electrical resistance was measured. Test compounds were pre-dissolved in DMSO and added either to the apical or basolateral compartment at a final concentration of 2 µM. Before and after 2 h incubation at 37 °C, samples were taken from both compartments. Analysis of compound content was conducted after precipitation with methanol by LC/MS/MS analysis. Reference compounds were analyzed in parallel as assay control. Permeability (Papp) was calculated in the apical to basolateral (A → B) and basolateral to apical (B → A) directions. The efflux ratio basolateral (B) to apical (A) was calculated by dividing Papp B–A by Papp A–B.

PRC2/EZH2Y641N [4] = target: T4, PRC2/EZH2Y641N; experiment: Kinetic probe competition assay (kPCA), TR-FRET; format: binding
Source text: (§3) Biotinylated PRC2 complexes and the fluorescent probe used in TR-FRET assays were generated as described in the supplementary methods section.

PRC2/EZH2+/+ [5] = target: T2, PRC2/EZH2+/+; experiment: Equilibrium probe competition assay (ePCA), TR-FRET; format: binding
PRC2/EZH2+/+ [6] = target: T2, PRC2/EZH2+/+; experiment: Kinetic probe competition assay (kPCA), TR-FRET; format: binding; settings: for Kd: sheet ePCA&kPCA RT, read-out: Kinetic Kd
Description: as §3
For measurements at 25, 30 and 37 °C, the temperature control functionality of the instrument was used.
TR-FRET kPCA traces were exported via Microsoft Excel to GraphPad Prism, where non-specific signals were subtracted and kinetic association competition traces were fitted to the Motulsky–Mahan model “kinetics of competitive binding” to obtain kon (k3), koff (k4) and KD parameters.

[7] = EZH2Y641N (- H3K27me3), sheet ePCA&kPCA RT

CCCc1cc(C)[nH]c(=O)c1CNC(=O)c1cc(-c2ccc(N3CCN(C(C)C)CC3)nc2)cc2c1cnn2C(C)C [Compound 9, UNC1999]
IC50 (PRC2/EZH2Y111D; 0' enzyme:inhibitor pre-incubation, read-out: SPA Mean IC50 (M) - 0' enzyme:inhibitor pre-incubation EZH2Y111D): 5.9e-06 M
IC50 (PRC2/EZH2Y111D; 15' enzyme:inhibitor pre-incubation, read-out: SPA Mean IC50 (M) - 15' enzyme:inhibitor pre-incubation EZH2Y111D): 4e-06 M
IC50 (PRC2/EZH2Y111D; 60' enzyme:inhibitor pre-incubation, read-out: SPA Mean IC50 (M) - 60' enzyme:inhibitor pre-incubation EZH2Y111D): 3.2e-06 M
IC50 (PRC2/EZH2+/+ [1]; 0' enzyme:inhibitor pre-incubation, read-out: SPA Mean IC50 (M) - 0' enzyme:inhibitor pre-incubation EZH2+/+): 5.2e-09 M
IC50 (PRC2/EZH2+/+ [1]; 15' enzyme:inhibitor pre-incubation, read-out: SPA Mean IC50 (M) - 15' enzyme:inhibitor pre-incubation EZH2+/+): 3.7e-09 M
IC50 (PRC2/EZH2+/+ [1]; 60' enzyme:inhibitor pre-incubation, read-out: SPA Mean IC50 (M) - 60' enzyme:inhibitor pre-incubation EZH2+/+): 3.1e-09 M
IC50 (PRC2/EZH2Y641N+Y661D; 0' enzyme:inhibitor pre-incubation, read-out: SPA Mean IC50 (M) - 0' enzyme:inhibitor pre-incubation EZH2Y641N+Y661D): 3e-06 M
IC50 (PRC2/EZH2Y641N+Y661D; 15' enzyme:inhibitor pre-incubation, read-out: SPA Mean IC50 (M) - 15' enzyme:inhibitor pre-incubation EZH2Y641N+Y661D): 2.4e-06 M
IC50 (PRC2/EZH2Y641N+Y661D; 60' enzyme:inhibitor pre-incubation, read-out: SPA Mean IC50 (M) - 60' enzyme:inhibitor pre-incubation EZH2Y641N+Y661D): 3.2e-06 M
IC50 (PRC2/EZH2Y641N [2]; 0' enzyme:inhibitor pre-incubation, read-out: SPA Mean IC50 (M) - 0' enzyme:inhibitor pre-incubation hEZH2Y641N): 3.8e-08 M
IC50 (PRC2/EZH2Y641N [2]; 15' enzyme:inhibitor pre-incubation, read-out: SPA Mean IC50 (M) - 15' enzyme:inhibitor pre-incubation EZH2Y641N): 3.6e-08 M
IC50 (PRC2/EZH2Y641N [2]; 60' enzyme:inhibitor pre-incubation, read-out: SPA Mean IC50 (M) - 60' enzyme:inhibitor pre-incubation EZH2Y641N): 3.2e-08 M
IC50 (PRC2/EZH2 Y111L; 0' enzyme:inhibitor pre-incubation, read-out: SPA Mean IC50 (M) - 0' enzyme:inhibitor pre-incubation EZH2 Y111L): 3.1e-08 M
IC50 (PRC2/EZH2 Y111L; 15' enzyme:inhibitor pre-incubation, read-out: SPA Mean IC50 (M) - 15' enzyme:inhibitor pre-incubation EZH2 Y111L): 2.2e-08 M
IC50 (PRC2/EZH2 Y111L; 60' enzyme:inhibitor pre-incubation, read-out: SPA Mean IC50 (M) - 60' enzyme:inhibitor pre-incubation EZH2 Y111L): 2.5e-08 M
Ki (PRC2/EZH2Y641N [3]; EZH2Y641N (+ H3K27me3), equilibrium, RT sheet): 6.65 nM
Ki (PRC2/EZH2Y641N [3]; [7]): 26.5 nM
Papp A→B at 2 h, 2 µM (in vitro; apical to basolateral, read-out: PK Caco-2 Flux Papp A-B (mean)): 0.314 ×10⁻⁶ cm/s
Papp B→A at 2 h, 2 µM (in vitro; basolateral to apical, read-out: PK Caco-2 Flux Papp B-A (mean)): 12.6 ×10⁻⁶ cm/s
Calculated RT (PRC2/EZH2Y641N [4]; EZH2Y641N (+ H3K27me3)): 0.07 h
Kd (PRC2/EZH2Y641N [4]; EZH2Y641N (+ H3K27me3), kinetic, RT sheet): 4.56 nM
Calculated RT (PRC2/EZH2Y641N [4]; EZH2Y641N (- H3K27me3)): 0.0242 h
Kd (PRC2/EZH2Y641N [4]; [7]): 35 nM
Ki (PRC2/EZH2+/+ [5]; EZH2+/+ (+ H3K27me3), sheet ePCA&kPCA RT, read-out: Equilibrium Ki): 1.14 nM
Ki (PRC2/EZH2+/+ [5]; EZH2+/+ (- H3K27me3), 5 °C, read-out: Ki (Equilibrium)): 1.92 nM
Ki (PRC2/EZH2+/+ [5]; EZH2+/+ (- H3K27me3), 15 °C, read-out: Ki (Equilibrium)): 1.6 nM
Ki (PRC2/EZH2+/+ [5]; EZH2+/+ (- H3K27me3), 30 °C, read-out: Ki (Equilibrium)): 8.06 nM
Ki (PRC2/EZH2+/+ [5]; EZH2+/+ (- H3K27me3), 37 °C, read-out: Ki (Equilibrium)): 9.47 nM
Ki (PRC2/EZH2+/+ [5]; EZH2+/+ (- H3K27me3), sheet ePCA&kPCA RT, read-out: Equilibrium Ki): 2.83 nM
Ki (PRC2/EZH2+/+ [5]; wild type EZH2, absence of H3K27me3 peptide, read-out: Ki): 2.8 ± 0.9 nM
Ki (PRC2/EZH2+/+ [5]; wild type EZH2, saturating concentrations of H3K27me3 peptide, read-out: Ki): 1.1 ± 0.5 nM
Calculated RT (PRC2/EZH2+/+ [6]; EZH2+/+ (+ H3K27me3)): 0.20 h
Kd (PRC2/EZH2+/+ [6]; EZH2+/+ (+ H3K27me3)): 0.54 nM
RT (Calculated) (PRC2/EZH2+/+ [6]; EZH2+/+ (- H3K27me3), 5 °C): 0.341 h
RT (Calculated) (PRC2/EZH2+/+ [6]; EZH2+/+ (- H3K27me3), 15 °C): 0.0983 h
RT (Calculated) (PRC2/EZH2+/+ [6]; EZH2+/+ (- H3K27me3), 30 °C): 0.0171 h
RT (Calculated) (PRC2/EZH2+/+ [6]; EZH2+/+ (- H3K27me3), 37 °C): 0.0129 h
Calculated RT (PRC2/EZH2+/+ [6]; EZH2+/+ (- H3K27me3)): 0.0369 h
Kd (PRC2/EZH2+/+ [6]; EZH2+/+ (- H3K27me3)): 2.39 nM
